Test: Bleaching of dye-impregnated filter paper strips in flowing ozonated water
Format: physicochemical
Source text: Each kind of indicator-impregnated substrate, or Ct strip, must be tested to empirically determine the Ct value range most suitable for that particular combination of indicator and substrate. To empirically determine the Ct value range for a Ct strip having a particular indicator impregnated onto a particular substrate having particular properties, the particular Ct strip is exposed to known concentrations of ozone over incremental periods of time. The resulting color of the substrate is recorded after given increments of time until the color is entirely bleached out or until a maximum desired exposure time has passed. The color of the Ct strip, after each time increment of immersion in a known concentration of ozone, is an accurate measure of the Ct value for an exposed surface. The resulting colors are recorded for comparison use, as on a color chart, for that particular combination of indicator and substrate. Strips of filter paper ½″×2″ were cut and immersed in a 1000 ppm solution of Solvent Green 3 (1,4-bis[(4-methylphenyl)amino]-9,10-anthracenedione) in acetone for 5 seconds at room temperature. When dyed in this manner, strips were initially an extremely dark green and dried to a medium green color. When submerged in a flowing bath of 3 ppm ozone dissolved in water, bleaching was observed. […] Strips of filter paper ½″×2″ were cut and immersed in a 1000 ppm solution of Solvent Red 23 in acetone for 5 seconds at room temperature. When submerged in a flowing bath of 5 ppm ozone dissolved in water, bleaching was observed. […] Strips of filter paper ½″×2″ were cut and immersed in a 1000 ppm solution of Solvent Violet 13 in acetone for 5 seconds at room temperature. When submerged in a flowing bath of 5 ppm ozone dissolved in water, bleaching was observed. […] Strips of filter paper ½″×2″ were cut and immersed in a 500 ppm solution of Solvent Yellow 33 in acetone for 5 seconds at room temperature. When submerged in a flowing bath of 6 ppm ozone dissolved in water, bleaching was observed.

A color loss (filter paper strip dyed in 1000 ppm Solvent Red 23 solution in acetone, flowing bath of 5 ppm ozone dissolved in water, after 90 minutes) of about 30% was found for Oc1ccc2ccccc2c1N=Nc1ccc(N=Nc2ccccc2)cc1 [Solvent Red 23] in this work.
A color loss (filter paper strip dyed in 1000 ppm Solvent Red 23 solution in acetone, flowing bath of 5 ppm ozone dissolved in water, after 240 minutes) of about 75% was found for Cc1ccc(Nc2ccc(O)c3c2C(=O)c2ccccc2C3=O)cc1 [Solvent Violet 13] in this work.
In the case of O=C1c2ccccc2C(=O)C1c1ccc2ccccc2n1 [Solvent Yellow 33], the color loss (filter paper strip dyed in 500 ppm solution in acetone, flowing bath of 6 ppm ozone dissolved in water, after 20 minutes) is reported as “complete color loss”.
A color loss (filter paper strip dyed in 1000 ppm solution in acetone, flowing bath of 3 ppm ozone dissolved in water, after 90 minutes) of about 40% was found for Cc1ccc(Nc2ccc(Nc3ccc(C)cc3)c3c2C(=O)c2ccccc2C3=O)cc1 [Solvent Green 3, 1,4-bis[(4-methylphenyl)amino]-9,10-anthracenedione] in this work.
